One series addresses CYP2D6 (Homo sapiens, UniProt P10635). Kind of series: CYP2D6 inhibition in pooled human liver microsomes. Set-up: Pooled human liver microsomes (HLM, final concentration 0.05 mg protein/mL); tissue BD Biosciences 452161; host or cells: pooled human liver microsomes. The format is in vitro ADME. In outline:
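Pooled HLM (0.05 mg/mL) in 0.1 M KPi pH 7.4 with 5 μM dextromethorphan and 10 μM test compound, preincubated 5 min at 37 °C, then started with NADPH-regenerating system for 5 min. Dextrorphan quantified by LC/MS/MS; activity expressed as % of vehicle; <70% considered significant.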

The subject of series [1] is ovariectomized (OVX) rat. Nature of the series: OVX rat model, bone mineral density by DEXA. It is filed as in vivo. Set-up: increase in BMD in the femoral shaft compared to vehicle-treated OVX animals: unit not given here. The conditions noted are these: for BMD proximal tibia (18% bone loss in OVX animals): FIG. 6, SEQ ID NO: 19 20-320, SEQ ID NO: 33 5 nmol/kg; for BMD proximal tibia (18% bone loss in OVX animals) / BMD in lumbar vertebrae L1-L2 relative to vehicle-treated OVX and sham animals: s.c. 6 weeks; for BMD in lumbar vertebrae L1-L2 relative to vehicle-treated OVX and sham animals: FIG. 7; for BMD compared to vehicle-treated OVX animals: all doses; for increase in BMD in the femoral shaft compared to vehicle-treated OVX animals / BMD in the femoral shaft: FIG. 9; for BMD in the femoral shaft: site rich in cortical bone. The text has this: The ovariectomiced(OVX) rat may be used to test the effect of the PTH analogues on osteopenia/osteoporosis in vivo. The OVX rat develop osteopenia due to ovarian hormone deficiency. Osteopenia can be detected as early as 14 days post OVX, increase for the next 100 days and then stabilized (Wronski T J et al., Calcif. Tissue Int., 43(3): 179-183, 1988). The OVX rat model is considered the “golden standard” by both authorities and industry as a model for osteoporosis (Peter C, Rodan G A. Preclinical safety profile of alendronate. Int j Clin Pract Suppl 1999; 101:3-8, and Stewart A F, Cain R L, Burr D B, Jacob D, Turner C H, Hock J M).
(§1) One hundred and seventy-eight female Fisher rats were used for the experiment. Initially the animals were housed in Macrolon type 3 cages (2 rats/cage) under controlled conditions (20° C., 55-85% humidity) following a 12:12-hrs light/dark cycle with light on at 6 am. The animals were fed ad libitum with standard Altromin No. 1324 diet (Chr. Petersen, Ringsted, Denmark). The animals had free access to drinking water (domestic quality tap water added citric acid to pH≈3). At the time of inclusion the animals were 6 months old.
(§2) The week before OVX the animals were stratified according to body weight into two groups that were subjected to either OVX (140 animals) or sham operation (38 animals). Rats were anaesthetized with Hypnorm-Dormicum and the ovariectomy was performed through a midline laparotomy. Sham-operated animals were subjected to midline laparotomy, and the ovaries were exposed but not removed (sham). This group served as an age matched non-osteoporotic control group. A microchip was implanted into each rat during surgery, in order to allow identification of the animals.
(§3) To allow osteopenia to develop before treatment start, animals were housed for 7 weeks (pre-treatment period) without pharmacological treatment. At the end of the pre-treatment period, sham- and OVX-operated rats were stratified according to bodyweight and divided into six groups of 13-20 animals each (Table 7). At this point, one OVX group (N=20) and one sham group (N=20) were sacrificed. These control groups established baseline levels of bone mineral density (BMD). Furthermore, samples were stored for possible later analysis of bone markers, bone strength, histomorphometry and μCT scans.
(§4) For the following 6 weeks one sham group and one OVX group were subjected to vehicle administration (40 mM sodium acetate, 45 mM histidine and 3.9% mannitol, pH 5.5, 300 mOsm/kg). Five OVX groups were treated with increasing doses of the cyclic PTH(1-17) analogue SEQ ID NO: 19. Another OVX group was treated with SEQ ID NO: 33 (Table 7). All drugs were given as s.c. injections. After 6 weeks of treatment the animals were sacrificed. Spine, tibia and femur were collected for analysis of BMD by DEXA-scan and bone samples were stored for later bone strength measurements.
(§5) Lumbar vertebrae (L4-L5-L6-S1), left femur and tibia were collected, cleaned, packed in saline moistened gaze in a tube and stored at −20° C. for later ex vivo bone strength measurements. Right femur and tibia as well as lumbar vertebrae (T13-L1-L2-L3) and caudal vertebrae (S2-S3-C1-C2-C3) were collected, cleaned and stored in 70% ethanol for analysis of bone mineral density (BMD) and possible later histomorphometry and/or μCT scanning.
Ex vivo BMD measurements were performed at the end of the study using a Lunar Piximus II densitometer (GE Healthcare, Chalfont St. Giles, UK) with a precision of 1.5%. Calibration of the instrument was performed with an aluminium/Lucite phantom.
Tibiae, femora and lumbar (L1-L2) and sacral/caudal (S3-C1) spine fragments were placed on the imaging positioning tray and scanned four times. All specimens were placed in a similar orientation for correct comparison. Regions of interest (ROI) were generated on the scans using the Piximus image analysis software provided with the instrument. […]

The test system of series [2] is ovariectomized (OVX) rat. Kind of series: OVX rat model, bone strength measurements. The conditions noted are these: for bone strength of the femoral head in a compression test: FIG. 10; for bone strength of the femoral head in a compression test / bone strength of the femur in a three-point bending test versus vehicle-treated OVX animals: all doses; for bone strength of the femur, shaft region and femoral head region, versus vehicle-treated OVX-group: FIGS. 10 and 11. It is filed as in vivo. As to the method: as §1, §2, §3, §4, §5
Bone strength measurements were performed on a compression device (Lloyd Instruments, Fareham, UK). Bones were positioned with the help of custom-made holders, in order to achieve maximal reproducibility. Maximal force to fracture was determined.
Overall comparison among groups was performed using one-way ANOVA for one-way classified data (BMD). For individual comparisons among groups, post-hoc analysis was performed using Fisher's least significant difference test. Differences were considered significant at the 5% level. All data are presented as mean±SEM.

Setting [3] is: doses greater than 20 nmol/kg/d.

The structures appear in SMILES notation. Entries after “also recorded” stand apart in the source; their conditions may differ. Bridge positions count the residues as written; N and C are the ends. Square brackets hold non-standard residues; d marks the D form. Peptide text beside a SMILES is read from it. I, II: the chains in the order shown. hArg = N=C(N)NCCCC[C@H](N)C(=O)O; Ac5c = NC1(C(=O)O)CCCC1; Aib = CC(C)(N)C(=O)O

CYP2D6, sequence (P10635 whole entry): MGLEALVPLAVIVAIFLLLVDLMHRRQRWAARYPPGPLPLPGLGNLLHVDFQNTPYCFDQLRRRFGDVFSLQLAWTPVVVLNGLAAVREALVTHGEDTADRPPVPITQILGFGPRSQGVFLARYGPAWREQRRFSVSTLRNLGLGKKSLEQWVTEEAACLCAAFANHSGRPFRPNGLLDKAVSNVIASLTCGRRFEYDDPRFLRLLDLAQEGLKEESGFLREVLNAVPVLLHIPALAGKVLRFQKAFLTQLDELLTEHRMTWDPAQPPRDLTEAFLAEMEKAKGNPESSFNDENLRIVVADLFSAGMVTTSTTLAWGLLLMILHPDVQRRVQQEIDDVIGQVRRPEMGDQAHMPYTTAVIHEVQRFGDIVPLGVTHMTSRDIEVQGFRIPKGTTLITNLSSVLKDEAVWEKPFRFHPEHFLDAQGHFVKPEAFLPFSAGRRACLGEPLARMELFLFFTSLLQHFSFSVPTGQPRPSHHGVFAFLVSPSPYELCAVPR

Regarding `CC[C@H](C)[C@H](NC(=O)[C@H](CCC(=O)O)NC(=O)C(C)(C)NC(=O)[C@@H](NC(=O)C1(N)CCCC1)C(C)C)C(=O)N[C@@H](CCC(N)=O)C(=O)N[C@@H](CC(C)C)C(=O)N[C@@H](CC(C)C)C(=O)N[C@@H](Cc1c[nH]cn1)C(=O)N[C@@H](CCC(N)=O)C(=O)N[C@@H](CCCCNC(=N)N)C(=O)N[C@@H](C)C(=O)N[C@H]1CCCCNC(=O)C[C@@H](C(N)=O)NC(=O)[C@H](CC(N)=O)NC(=O)[C@H](CC(C)C)NC(=O)[C@H](Cc2c[nH]c3ccccc23)NC1=O` [SEQ ID NO: 19, H-Ac5c-Val-Aib-Glu-Ile-Gln-Leu-Leu-His-Gln-Har-Ala-Lys( )-Trp-Leu-Asn-Asp( )-NH2] (H-[Ac5c]V[Aib]EIQLLHQ[hArg]AKWLND-NH2; lactam 13-17), on CYP2D6, the “effect on CYP2D6 activity in words” value is “absence of any inhibitory effect on CYP2D6 activity”. Also, at CYP2D6 (10 μM compound, dextrorphan formation rate), the “CYP2D6 activity (% of vehicle)” value is listed as 90 % of vehicle. In addition, the “bone mineral densities at the lowest dose” value in the series with ovariectomized (OVX) rat [1] (20 nmol/kg/d) is “at least normalization”. Also, the “bone mineral density versus vehicle-treated ovariectomized rats, regardless of site” value with ovariectomized (OVX) rat [1] (20 nmol/kg/d to 320 nmol/kg/d s.c., 6 weeks) is listed as “significantly higher bone mineral density”. For the same compound, in the series on ovariectomized (OVX) rat [1] (OVX rats), the “BMD proximal tibia (18% bone loss in OVX animals)” value is on record as “completely reversed”; the “BMD in lumbar vertebrae L1-L2 relative to vehicle-treated OVX and sham animals” value is listed as “improved”; the “bone-anabolic activity in cortical and trabecular bone” value was “showed bone-anabolic activity”. Also, the “BMD compared to vehicle-treated OVX animals” value with ovariectomized (OVX) rat [1] (FIG. 8) is given as “significantly increased”. In addition, in the series with ovariectomized (OVX) rat [1] (FIG. 8, doses higher than 20 nmol/kg/d), the “BMD over sham control levels” value is “significantly increased over sham control levels”. For the same compound, in the series with ovariectomized (OVX) rat [1], the “increase in BMD in the femoral shaft compared to vehicle-treated OVX animals” value is given as “about 81” and the “BMD in the femoral shaft” value was “improved”. In addition, the “bone mineral density versus vehicle-treated sham-operated rats” value in the series on ovariectomized (OVX) rat [1] (setting [3]) is given as “bone mineral densities higher than in vehicle-treated sham-operated rats”. For the same compound, in the series with ovariectomized (OVX) rat [2], the “bone strength of the femoral head in a compression test” value was “higher than in vehicle-treated OVX and sham animals at all doses”; the “bone strength of the femur, shaft region and femoral head region, versus vehicle-treated OVX-group” value is recorded as “significantly increased”. Moreover, the “bone strength of the femur in a three-point bending test versus vehicle-treated OVX animals” value in the series on ovariectomized (OVX) rat [2] (FIG. 11) is listed as “higher than in vehicle-treated OVX animals at all doses”. Also, the “bone strength of the femur in a three-point bending test versus vehicle-treated sham animals” value in the series on ovariectomized (OVX) rat [2] (FIG. 11, doses higher than 20 nmol/kg/d) is reported as “increased strength compared to vehicle-treated sham animals”. Further, in the series with ovariectomized (OVX) rat [2] (setting [3]), the “bone strength versus vehicle-treated sham-operated group” value is listed as “significantly increased”.
In the case of `CC[C@H](C)[C@H](NC(=O)[C@H](CCC(=O)O)NC(=O)C(C)(C)NC(=O)[C@@H](NC(=O)C1(N)CCCC1)C(C)C)C(=O)N[C@@H](CCC(N)=O)C(=O)N[C@@H](CC(C)C)C(=O)N[C@@H](CCSC)C(=O)N[C@@H](Cc1c[nH]cn1)C(=O)N[C@@H](CCC(N)=O)C(=O)N[C@@H](CCCCNC(=N)N)C(=O)N[C@@H](C)C(=O)N[C@H]1CCCCNC(=O)C[C@@H](C(N)=O)NC(=O)[C@H](CC(C)C)NC(=O)[C@H](Cc2c[nH]c3ccccc23)NC(=O)[C@@H](NC(=O)[C@H](C)NC(=O)[C@H](CCCCNC(=N)N)NC(=O)[C@H](CCC(N)=O)NC(=O)[C@H](Cc2c[nH]cn2)NC(=O)[C@H](CCSC)NC(=O)[C@H](CC(C)C)NC(=O)[C@H](CCC(N)=O)NC(=O)[C@@H](NC(=O)[C@H](CCC(=O)O)NC(=O)C(C)(C)NC(=O)[C@@H](NC(=O)C2(N)CCCC2)C(C)C)[C@@H](C)CC)CCCCNC(=O)C[C@@H](C(N)=O)NC(=O)[C@H](CC(C)C)NC(=O)[C@H](Cc2c[nH]c3ccccc23)NC1=O` [SEQ ID NO: 33, (H-Ac5c-Val-Aib-Glu-Ile-Gln-Leu-Met-His-Gln-Har-Ala-Lys( )-Trp-Leu-Asp( )-NH2)2] (I: H-[Ac5c]V[Aib]EIQLMHQ[hArg]AKWLD-NH2 / II: H-[Ac5c]V[Aib]EIQLMHQ[hArg]AKWLD-NH2; amide I:13-II:16, I:16-II:13 (inferred)), in the series on ovariectomized (OVX) rat [1] (5 nmol/kg/d s.c., 6 weeks), the “bone mineral density versus vehicle-treated ovariectomized rats, all sites tested” value is reported as “significant increases; also recorded: significantly increased”. Moreover, in the series on ovariectomized (OVX) rat [1] (OVX rats), the “BMD proximal tibia (18% bone loss in OVX animals)” value was “completely reversed”; the “BMD in lumbar vertebrae L1-L2 relative to vehicle-treated OVX and sham animals” value is listed as “improved”. In the series with ovariectomized (OVX) rat [1] (FIG. 8), the “BMD compared to vehicle-treated OVX animals” value is listed as “significantly increased”. Moreover, in the series with ovariectomized (OVX) rat [1], the “increase in BMD in the femoral shaft compared to vehicle-treated OVX animals” value is “about 81” and the “BMD in the femoral shaft” value was “improved”. The “bone strength compared to vehicle-treated OVX-group” value in the series with ovariectomized (OVX) rat [2] (5 nmol/kg/d) was “significantly increased”. For the same compound, in the series with ovariectomized (OVX) rat [2], the “bone strength of the femoral head in a compression test” value was “higher than in vehicle-treated OVX and sham animals at all doses”; the “bone strength of the femur, shaft region and femoral head region, versus vehicle-treated OVX-group” value is given as “significantly increased”. Further, in the series with ovariectomized (OVX) rat [2] (FIG. 11), the “bone strength of the femur in a three-point bending test versus vehicle-treated OVX animals” value is “higher than in vehicle-treated OVX animals at all doses”.

The record behind these values is patent US20100048462A1, “TRUNCATED PTH PEPTIDES WITH A CYCLIC CONFORMATION” (Zealand Pharma A/S, priority 2006, published 2010).
